The values below come from ChEMBL document CHEMBL2380268, “Characterization of the receptor binding residues of kisspeptins by positional scanning using peptide photoaffinity probes” (Bioorg Med Chem Lett, 2013).

The source made the active and inactive calls. No cut-off for these calls is given here. Where a SMILES comes first, the peptide text is derived from it. The star is where a group is joined. X1 = [N-]=[N+]=Nc1ccc(C(=O)NCCN2C(=O)CC(*)C2=O)c(O)c1; Biotin = O=C1N[C@H]2[C@H](CS[C@H]2CCCCC(=O)*)N1

What all share (type): cell-based
The target of test [1] is KiSS-1 receptor (Homo sapiens) (UniProt Q969F8). As to the kind of experiment: Binding affinity to GPR54 in HEK293 cells at 500 nM incubated for 1 hr followed by UV irradiation for 30 secs by Western blot analysis.
Test [2] shares this target. In words: Competitive binding affinity to GPR54 in HEK293 cells at 500 nM incubated for 1 hr followed by UV irradiation for 30 secs by Western blot analysis in presence of unlabeled Kp-10.
For test [3] the target is unchanged. In words: Binding affinity to GPR54 in HEK293 cells at 500 nM incubated for 1 hr followed by UV irradiation for 30 secs by Western blot analysis in presence of PNGase F.

Sequence of KiSS-1 receptor (Homo sapiens) (Q969F8 whole entry): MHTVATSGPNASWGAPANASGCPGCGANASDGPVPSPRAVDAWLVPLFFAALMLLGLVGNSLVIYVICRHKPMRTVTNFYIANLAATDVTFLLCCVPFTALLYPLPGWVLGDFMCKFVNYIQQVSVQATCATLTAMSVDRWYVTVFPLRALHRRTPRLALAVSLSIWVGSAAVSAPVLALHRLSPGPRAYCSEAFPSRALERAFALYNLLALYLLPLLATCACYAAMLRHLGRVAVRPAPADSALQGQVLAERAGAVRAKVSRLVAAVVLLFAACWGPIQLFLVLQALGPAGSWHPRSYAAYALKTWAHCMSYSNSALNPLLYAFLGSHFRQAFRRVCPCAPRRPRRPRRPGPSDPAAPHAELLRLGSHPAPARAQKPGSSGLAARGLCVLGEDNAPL

For the compound `CC(C)C[C@H](NC(=O)CNC(=O)[C@H](Cc1ccccc1)NC(=O)[C@H](CO)NC(=O)[C@H](CC(N)=O)NC(=O)[C@H](Cc1c[nH]c2ccccc12)NC(=O)[C@H](CC(N)=O)NC(=O)[C@H](CSC1CC(=O)N(CCNC(=O)c2ccc(N=[N+]=[N-])cc2O)C1=O)NC(=O)[C@H](CC(N)=O)NC(=O)[C@@H]1CCCN1C(=O)[C@H](CC(C)C)NC(=O)[C@H](CC(=O)O)NC(=O)CCCC[C@@H]1SC[C@@H]2NC(=O)N[C@@H]21)C(=O)N[C@@H](CCCNC(=N)N)C(=O)N[C@@H](Cc1ccccc1)C(N)=O` (some centres undefined) (Biotin-DLPNC(X1)NWNSFGLRF-NH2), in test [1], the outcome was inactive.

Regarding `CC(C)C[C@H](NC(=O)CNC(=O)[C@H](Cc1ccccc1)NC(=O)[C@H](CO)NC(=O)[C@H](CC(N)=O)NC(=O)[C@H](Cc1c[nH]c2ccccc12)NC(=O)[C@H](CSC1CC(=O)N(CCNC(=O)c2ccc(N=[N+]=[N-])cc2O)C1=O)NC(=O)[C@H](Cc1ccc(O)cc1)NC(=O)[C@H](CC(N)=O)NC(=O)[C@@H]1CCCN1C(=O)[C@H](CC(C)C)NC(=O)[C@H](CC(=O)O)NC(=O)CCCC[C@@H]1SC[C@@H]2NC(=O)N[C@@H]21)C(=O)N[C@@H](CCCNC(=N)N)C(=O)N[C@@H](Cc1ccccc1)C(N)=O` (some centres undefined) (Biotin-DLPNYC(X1)WNSFGLRF-NH2), the result in test [1] was inactive.

For `CC(C)C[C@H](NC(=O)CNC(=O)[C@H](Cc1ccccc1)NC(=O)[C@H](CO)NC(=O)[C@H](CC(N)=O)NC(=O)[C@H](CSC1CC(=O)N(CCNC(=O)c2ccc(N=[N+]=[N-])cc2O)C1=O)NC(=O)[C@H](CC(N)=O)NC(=O)[C@H](Cc1ccc(O)cc1)NC(=O)[C@H](CC(N)=O)NC(=O)[C@@H]1CCCN1C(=O)[C@H](CC(C)C)NC(=O)[C@H](CC(=O)O)NC(=O)CCCC[C@@H]1SC[C@@H]2NC(=O)N[C@@H]21)C(=O)N[C@@H](CCCNC(=N)N)C(=O)N[C@@H](Cc1ccccc1)C(N)=O` (some centres undefined) (Biotin-DLPNYNC(X1)NSFGLRF-NH2), the outcome in test [2] and in test [3] was inactive.
